Reference: the supplement of paper PMC11208160

experiment: recombinant UMI read abundance after kanamycin selection (control-corrected) (log10(CPM+1)); higher = more efficient recombination; extreme values may be limits of the assay; sequences stand for … in AGTGCAGAGAAAATCGGCCAGTTTTCTCTGCCTGCAGTCCGCATGCCGTGGGACCCCTTGGGTTCTAACCTGTTGCCTAGATTTATGCAGCGGACTGCCTTTCTCCCAAAGTGATAAACCGG…AGGTTGGTTTCACT; site = the 11-nt donor
Procedure, shortened: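 Each donor and donor-binding-loop pair was tracked by a 12-nt UMI on a plasmid carrying a promoterless kanamycin gene. With a second plasmid supplying a fixed target and T7-inducible IS621 bridge recombinase, the pool was plated in Escherichia coli on IPTG (0.07 mM) plus kanamycin or unselected. Sequencing of recombinant UMIs across the donor–target junction gave counts expressed as log10(CPM+1) after replicate averaging and control-derived scaling.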
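Further: IS621 bridge recombinase in Escherichia coli cells against a fixed T5 target plasmid.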

Point of comparison: “CACTTGGCATGGACCGGTTTTCCCGGTAATCCGTATTTGGT (site CACTTGGCTCC)”, “recombinant UMI read abundance (log10)” value 0.103. Against it:
- CACGGCCCATGGACCGGTTTTCCCGGTAATCCGTATTTGTT (site CGCGGCCCTAA) — within 0.2 log units, 0.0132
- CACGGCCCATGGACCGGTTTTCCCGGTAATCCGTATTTGTT (site CTCGGCCCTAA) — within 0.2 log units, 0.0153
- CACGGCCCATGGACCGGTTTTCCCGGTAATCCGTATTTGTT (site GACGGCCCTAA) — within 0.2 log units, 0.0197
- CACGGCCCATGGACCGGTTTTCCCGGTAATCCGTATTTGTT (site TACGGCCCTAA) — within 0.2 log units, 0.0279
- CACGGCGCATGGACCGGTTTTCCCGGTAATCCGTATTTGTT (site CACGGCACTAA) — higher, 1.5
- CACGGCGCATGGACCGGTTTTCCCGGTAATCCGTATTTGTT (site CACGGCCCTAA) — higher, 0.445
- CACGGCGCATGGACCGGTTTTCCCGGTAATCCGTATTTGTT (site CACGGCGCTAA) — higher, 1.74
- CACGGCGCATGGACCGGTTTTCCCGGTAATCCGTATTTGTT (site CACGGCTCTAA) — higher, 1.22
- CACGTATCATGGACCGGTTTTCCCGGTAATCCGTATTTGAC (site CACGTATCTGT) — higher, 2.78
- CACGTATCATGGACCGGTTTTCCCGGTAATCCGTATTTGAC (site CTAGTATCTGT) — higher, 1.1
- CACGTCACATGGACCGGTTTTCCCGGTAATCCGTATTTGGG (site CAAGTCACTCC) — within 0.2 log units, 0.0977
- CACGTCACATGGACCGGTTTTCCCGGTAATCCGTATTTGGG (site CACGTCACTCC) — within 0.2 log units, 0.0104
- CACGTCACATGGACCGGTTTTCCCGGTAATCCGTATTTGGG (site CAGGTCACTCC) — within 0.2 log units, 0.00985
- CACGTCACATGGACCGGTTTTCCCGGTAATCCGTATTTGGG (site CATGTCACTCC) — within 0.2 log units, 0.012
- CACGTCCCATGGACCGGTTTTCCCGGTAATCCGTATTTGTT (site CACGACCCTAA) — within 0.2 log units, 0.22
- CACGTCCCATGGACCGGTTTTCCCGGTAATCCGTATTTGTT (site CACGCCCCTAA) — within 0.2 log units, 0.263
- CACGTCCCATGGACCGGTTTTCCCGGTAATCCGTATTTGTT (site CACGGCCCTAA) — within 0.2 log units, 0.00825
- CACGTCCCATGGACCGGTTTTCCCGGTAATCCGTATTTGTT (site CACGTCCCTAA) — higher, 0.326
- CACGTGGCATGGACCGGTTTTCCCGGTAATCCGTATTTGGA (site CACATGGCTTC) — higher, 0.429
- CACGTGGCATGGACCGGTTTTCCCGGTAATCCGTATTTGGA (site CACCTGGCTTC) — higher, 0.475
- CACGTGGCATGGACCGGTTTTCCCGGTAATCCGTATTTGGA (site CACGTGGCTTC) — higher, 1.2
- CACGTGGCATGGACCGGTTTTCCCGGTAATCCGTATTTGGA (site CACTTGGCTTC) — within 0.2 log units, 0.235
- CACTAGCCATGGACCGGTTTTCCCGGTAATCCGTATTTGCC (site CACTAGCCTGG) — higher, 0.665
- CACTAGCCATGGACCGGTTTTCCCGGTAATCCGTATTTGCC (site CCCTAGCCTGG) — within 0.2 log units, 0
- CACTAGCCATGGACCGGTTTTCCCGGTAATCCGTATTTGCC (site CGCTAGCCTGG) — within 0.2 log units, 0
- CACTAGCCATGGACCGGTTTTCCCGGTAATCCGTATTTGCC (site CTCTAGCCTGG) — within 0.2 log units, 0
- CACTAGGCATGGACCGGTTTTCCCGGTAATCCGTATTTGAT (site CACTAGGCTAT) — higher, 1.33
- CACTCGACATGGACCGGTTTTCCCGGTAATCCGTATTTGTG (site CACTCGACTCA) — higher, 0.319
- CACTCGTCATGGACCGGTTTTCCCGGTAATCCGTATTTGCC (site CACTCATCTGG) — higher, 2.88
- CACTCGTCATGGACCGGTTTTCCCGGTAATCCGTATTTGCC (site CACTCCTCTGG) — within 0.2 log units, 0
- CACTCGTCATGGACCGGTTTTCCCGGTAATCCGTATTTGCC (site CACTCGTCTGG) — higher, 3.2
- CACTCGTCATGGACCGGTTTTCCCGGTAATCCGTATTTGCC (site CACTCTTCTGG) — within 0.2 log units, 0
- CACTCTTCATGGACCGGTTTTCCCGGTAATCCGTATTTGTT (site CACTCTTCTAA) — higher, 1.58
- CACTGACCATGGACCGGTTTTCCCGGTAATCCGTATTTGGG (site CACTGACCTCC) — within 0.2 log units, 0.00646
- CACTGCTCATGGACCGGTTTTCCCGGTAATCCGTATTTGCC (site CACTACTCTGG) — higher, 2
- CACTGCTCATGGACCGGTTTTCCCGGTAATCCGTATTTGCC (site CACTCCTCTGG) — within 0.2 log units, 0
- CACTGCTCATGGACCGGTTTTCCCGGTAATCCGTATTTGCC (site CACTGCTCTGG) — higher, 2.93
- CACTGCTCATGGACCGGTTTTCCCGGTAATCCGTATTTGCC (site CACTTCTCTGG) — within 0.2 log units, 0
- CACTTCTCATGGACCGGTTTTCCCGGTAATCCGTATTTGCC (site CACTACTCTGG) — higher, 1.09
- CACTTCTCATGGACCGGTTTTCCCGGTAATCCGTATTTGCC (site CACTCCTCTGG) — higher, 1.41
- CACTTCTCATGGACCGGTTTTCCCGGTAATCCGTATTTGCC (site CACTGCTCTGG) — within 0.2 log units, 0
- CACTTCTCATGGACCGGTTTTCCCGGTAATCCGTATTTGCC (site CACTTCTCTGG) — higher, 2.12
- CACTTGACATGGACCGGTTTTCCCGGTAATCCGTATTTGGA (site CACTTGACTTC) — within 0.2 log units, 0.194
- CACTTGACATGGACCGGTTTTCCCGGTAATCCGTATTTGGA (site CACTTGCCTTC) — within 0.2 log units, 0.0198
- CACTTGACATGGACCGGTTTTCCCGGTAATCCGTATTTGGA (site CACTTGGCTTC) — higher, 0.369
- CACTTGACATGGACCGGTTTTCCCGGTAATCCGTATTTGGA (site CACTTGTCTTC) — within 0.2 log units, 0.138
- CACTTGGCATGGACCGGTTTTCCCGGTAATCCGTATTTGAA (site CACTTGGCTTA) — higher, 0.431
- CACTTGGCATGGACCGGTTTTCCCGGTAATCCGTATTTGAA (site CACTTGGCTTC) — within 0.2 log units, 0.236
- CACTTGGCATGGACCGGTTTTCCCGGTAATCCGTATTTGAA (site CACTTGGCTTG) — higher, 1.05
- CACTTGGCATGGACCGGTTTTCCCGGTAATCCGTATTTGAA (site CACTTGGCTTT) — higher, 1.33
- CACTTGGCATGGACCGGTTTTCCCGGTAATCCGTATTTGGT (site CACTTGGCTAC) — higher, 1.79
- CACTTGGCATGGACCGGTTTTCCCGGTAATCCGTATTTGGT (site CACTTGGCTGC) — higher, 1.88
- CACTTGGCATGGACCGGTTTTCCCGGTAATCCGTATTTGGT (site CACTTGGCTTC) — within 0.2 log units, 0.0133
- CACTTGGCATGGACCGGTTTTCCCGGTAATCCGTATTTGTA (site CACTTGGCTTA) — higher, 1.46
- CACTTGGCATGGACCGGTTTTCCCGGTAATCCGTATTTGTA (site CACTTGGCTTC) — within 0.2 log units, 0.00904
- CACTTGGCATGGACCGGTTTTCCCGGTAATCCGTATTTGTA (site CACTTGGCTTG) — higher, 1.47
- CACTTGGCATGGACCGGTTTTCCCGGTAATCCGTATTTGTA (site CACTTGGCTTT) — higher, 0.75
- CACTTTCCATGGACCGGTTTTCCCGGTAATCCGTATTTGAG (site CACTTTCCTCT) — within 0.2 log units, 0.0778
- CACTTTGCATGGACCGGTTTTCCCGGTAATCCGTATTTGGA (site CACTTAGCTTC) — within 0.2 log units, 0.0269
- CACTTTGCATGGACCGGTTTTCCCGGTAATCCGTATTTGGA (site CACTTCGCTTC) — within 0.2 log units, 0.0129
- CACTTTGCATGGACCGGTTTTCCCGGTAATCCGTATTTGGA (site CACTTGGCTTC) — within 0.2 log units, 0.0264
- CACTTTGCATGGACCGGTTTTCCCGGTAATCCGTATTTGGA (site CACTTTGCTTC) — higher, 1.71
- CAGAACCCATGGACCGGTTTTCCCGGTAATCCGTATTTGCC (site CAGAACCCTGG) — within 0.2 log units, 0
- CAGAATCCATGGACCGGTTTTCCCGGTAATCCGTATTTGAT (site CAGAATCCTAT) — higher, 1.84
- CAGAATCCATGGACCGGTTTTCCCGGTAATCCGTATTTGAT (site CGGAATCCTAA) — within 0.2 log units, 0
- CAGAATCCATGGACCGGTTTTCCCGGTAATCCGTATTTGTT (site CAGAATCCTAA) — higher, 2.07
- CAGAATCCATGGACCGGTTTTCCCGGTAATCCGTATTTGTT (site CCGAATCCTAA) — within 0.2 log units, 0
- CAGAATCCATGGACCGGTTTTCCCGGTAATCCGTATTTGTT (site CGGAATCCTAA) — within 0.2 log units, 0.0121
- CAGAATCCATGGACCGGTTTTCCCGGTAATCCGTATTTGTT (site CTGAATCCTAA) — within 0.2 log units, 0
- CAGAGGCCATGGACCGGTTTTCCCGGTAATCCGTATTTGCT (site CAGAGGCCTAG) — higher, 1.68
- CAGAGTCCATGGACCGGTTTTCCCGGTAATCCGTATTTGCC (site CAGAGTCCTGG) — higher, 1.8
- CAGAGTCCATGGACCGGTTTTCCCGGTAATCCGTATTTGTT (site CAGAGTCCTAA) — higher, 1.92
- CAGAGTCCATGGACCGGTTTTCCCGGTAATCCGTATTTGTT (site CGGAATCCTAA) — within 0.2 log units, 0
- CAGATAACATGGACCGGTTTTCCCGGTAATCCGTATTTGGG (site CAGATAACTCC) — higher, 1.1
